The values that follow come from US20250282830A1, “ANTI-VIRAL PEPTIDE COMPOSITIONS AND METHODS TO IMPROVE BIOLOGICAL ACTIVITY THEREOF” (priority 2021, published 2025).

A short description of data set [1]: Pharmacokinetic characterization. Format: in vivo, BALB/c mice. The settings on record: mice. The protocol:
Male BALB/c mice (InVivos) aged 8-9 weeks were used during the pharmacokinetic characterization experiments. In brief, mice were anaesthetized by isoflurane. AH-D peptide solution (25 mg kg^−1) was then administered by the intravenous (i.v.) route (tail vein). Blood samples were taken by cardiac puncture under isoflurane anaesthesia at regular time points after injection (eight time points per compound). The administered dose was maintained at 5 ml kg^−1. Selected organs were collected after euthanasia and were stored at −80° C. until bioanalysis. Blood samples were mixed with deionized water while tissue samples were homogenized in deionized water before extraction. The samples were then treated with phosphoric acid (5 μl), followed by acetonitrile (25 μl) that contained 15 ng ml^−1 imipramine internal standard, 5% ammonium hydroxide (25 μl), deionized water (100 μl) and 5% Tween-20 (20 μl), before vortexing. The processed samples were then added to pre-activated Strata-X Solid Phase Extraction cartridges (30 mg per 1 ml; Phenomenex), and washed with 500 μl of deionized water, followed by elution in 75/25 acetonitrile/methanol with 1% formic acid. […] The blood and tissue samples were then analysed using a validated bio-analytical, ultra-performance liquid chromatography tandem mass spectrometry method. […]

A short description of data set [2]: Blood-to-brain influx assessment (BBB transport). It counts as in vivo, ICR-CD-1 mice. The settings on record: mice. The protocol: Female, Institute for Cancer Research, Caesarean Derived-1 (ICR-CD-1) mice (7 to 10 weeks old; Envigo) were used to assess the in vivo blood-brain barrier (BBB) transport properties of AH-D peptide. The BBB permeability of AH-D was evaluated according to multiple time regression (MTR) analysis. In brief, mice were anesthetized by injecting 40% urethane intraperitoneally. Approximately 200 μl of AH-D peptide solution (10 mg kg^−1) was injected into the jugular internalis vein, then blood samples were collected from the carotid artery at selected time points after injection (minimum five time points per compound). Immediately after blood collection, the mice were euthanized by decapitation. The collected blood samples were centrifuged at 10,000 g for 15 min at 21° C. and the brains were isolated. The brain and the serum of each mouse were then analysed using a validated bio-analytical, ultrahigh-performance liquid chromatography tandem mass spectrometry method. Modelling of the data was performed according to the linear Gjedde-Patlak equation, giving the influx rate constant Kin (unidirectional clearance) of AH-D peptide. The molar concentration in the brain was also calculated by converting the mass of peptide per mass of brain tissue into the mass of peptide per volume of brain tissue by assuming the brain density to be 1.04 g ml^−1. […]

Data set [3] concerns DENV-3. In words: Plaque reduction neutralization assay, DENV-3. Format: cell-based, Dengue virus serotype 3. The settings on record: Vero cells; virus pre-incubated with peptide 1 h at 37° C.; read-out: DENV-3 PRNT50. The protocol:
(§1) Vero cells were seeded at 1×10^5 cells per well and incubated overnight. Twofold serial dilutions of peptide were incubated with 200-300 p.f.u. of virus for 1 h at 37° C. Cells were infected with the virus-peptide mixture for 1 h at 37° C. The inoculum was removed and 0.8% (wt/vol) methylcellulose in medium supplemented with 1% FBS was added. After 3-5 days incubation, plates were fixed and analysed for plaques by immunostaining (DENV). For immunostaining, the cells were fixed, followed by incubation with 4G2, a mouse anti-DENV E protein monoclonal antibody (1:2,000 dilution), for 16-20 h. After addition of a secondary antibody, goat anti-mouse IgG (H+L)-HRP conjugate (1:2,000 dilution), the TrueBlue peroxidase substrate (KPL) was added and the optical density was measured at a wavelength of 450 nm. For crystal violet staining, cells were fixed with fixing solution (5% glutaric dialdehyde in Dulbecco's PBS) followed by staining with 0.1% crystal violet in fixing solution. The IC50 value was calculated by comparing the relative number of plaques in peptide-treated samples to virus-only samples using a four-parameter logistic curve fit.

The subject of data set [4] is DENV-4. Put plainly: Plaque reduction neutralization assay, DENV-4. Format: cell-based, Dengue virus serotype 4. The settings on record: Vero cells; virus pre-incubated with peptide 1 h at 37° C.; read-out: DENV-4 PRNT50. The method, then: as §1
In data set [5] the test system is DENV-1. Put plainly: Plaque reduction neutralization assay, DENV-1. The settings on record: Vero cells; virus pre-incubated with peptide 1 h at 37° C.; read-out: DENV-1 PRNT50. It counts as cell-based, Dengue virus serotype 1. The method, then: as §1
(Plaques are areas of infected cells; plaque reduction assays count them against a control.)

In data set [6] the test system is DENV-2. In words: Plaque reduction neutralization assay, DENV-2. The settings on record: Vero cells; virus pre-incubated with peptide 1 h at 37° C.; read-out: DENV-2 PRNT50. It counts as cell-based, Dengue virus serotype 2. The method, then: as §1
The nature of data set [7]: Time-lapse fluorescence microscopy imaging of peptide-induced vesicle rupture. The settings on record: small and large tethered vesicles. The method, then: Highly parallel measurements of peptide-induced liposome rupture were conducted by time-lapsed epifluorescence microscopy imaging. An Eclipse Ti-E inverted microscope (Nikon) with a high-pressure mercury lamp, a CFI Plan Apochromat TIRF×60 oil-immersion objective (NA 1.49; Nikon) and an Andor iXon3 897 EMCCD camera (Andor Technology), was utilized for measurements. The samples were illuminated with a mercury lamp (Intenslight C-HGFIE) using a TRITC filter set. Briefly, glass coverslips were assembled into a microfluidic flow cell, and coated with a thin layer of PLL-g-PEG(-biotin), followed by tethering of 0.025 μg ml^−1 liposomes via biotin-neutravidin coupling. Peptide was then added at a volumetric rate of 100 μl min^−1, and micrographs were recorded every 5-30 s depending on the particular experiment. The initial time was defined by when the peptide solution entered the channel inlet. Data processing and analysis were conducted using ImageJ (National Institutes of Health) and Python(x,y) software packages. The diameter of individual liposomes was estimated based on fluorescence intensity values. […]
Using time-lapse fluorescence microscopy imaging, we further investigated the interactions of different versions of Peptides 2 and 4 with tethered vesicles at the single-vesicle level and saw different degrees of vesicle rupture in terms of total extent and speed (FIG. 14).

Consider `CC[C@@H](C)[C@@H](NC(=O)[C@@H](Cc1c[nH]c2ccccc12)NC(=O)[C@@H](CC(=O)O)NC(=O)[C@@H](Cc1c[nH]c2ccccc12)NC(=O)[C@H](NC(=O)[C@@H](CC(=O)O)NC(=O)[C@@H](CCCNC(=N)N)NC(=O)[C@@H](CC(C)C)NC(=O)[C@@H](Cc1c[nH]c2ccccc12)NC(=O)[C@@H](CO)NC(=O)CNC(=O)[C@H](N)CO)C(C)C)C(=O)N[C@H](CS)C(=O)N[C@@H](C(=O)N[C@@H](C(=O)N[C@H](CC(C)C)C(=O)N[C@@H](C(=O)N[C@H](CC(=O)O)C(=O)N[C@H](Cc1ccccc1)C(=O)N[C@H](CCCCN)C(=O)N[C@@H](C(=O)N[C@H](Cc1c[nH]c2ccccc12)C(=O)N[C@H](CC(C)C)C(=O)N[C@H](CCC(N)=O)C(=O)N[C@H](CO)C(=O)N[C@H](CCCCN)C(=O)N[C@H](CC(C)C)C(=O)O)[C@H](C)O)[C@H](C)O)C(C)C)[C@H](C)O` [AH-D peptide], for which the Bioavailability entry in data set [1] is given as “high bioavailability”. Besides, the Circulation half-time result in data set [1] (25 mg kg−1 i.v.) is on record as “relatively long circulation half-time”. Further, the entries for the “Blood brain barrier (BBB) crossing” value in data set [2] and in data set [2] (listed as D-amino acid version of peptide 2) were “able to cross the blood brain barrier” and “BBB-crossing activity to achieve therapeutic concentrations in the brain”, respectively.
Regarding “SDDWLRIIWDWVCSVVSDFKAWLSAKI [Peptide O5O]”, the IC50 in data set [3] amounted to 0.176 µM; in data set [4], 0.279 µM; in data set [5] it was 0.0372 µM; in data set [6], 0.164 µM.
In the case of “SDDWLRTIWDWVCSVLADFKAWLSAKI [Peptide N7N]”, the IC50 in data set [3] turned out to be 1.14 µM; in data set [4] it was 0.242 µM; in data set [5] it was 0.171 µM; in data set [6], 0.562 µM.
For “SDDWLRTIWDWVCSVLADFKAWLSAKI [Peptide N7O]” the same measures were 2.38 µM, 0.198 µM, 0.723 µM and 1.88 µM.
Taken in the same sequence, the figures for “SDDWLRTIWDWVCSVLADFKAWLSAKI [Peptide O7O]” were 0.213 µM, 0.433 µM, 0.036 µM and 0.299 µM.
Regarding “SGDWLRIIWDWVCSVVSDFKTWLSAKI [Peptide N6N]”, the IC50 in data set [3] came to 2.78 µM; in data set [4] it was 0.165 µM; in data set [5] it was 0.162 µM; in data set [6], 0.536 µM.
As to “SGDWLRIIWDWVCSVVSDFKTWLSAKI [Peptide N6O]”, the IC50 was found to be 1.47 µM in data set [3], 0.273 µM in data set [4], 0.218 µM in data set [5] and 0.554 µM in data set [6].
Taken in the same sequence, the figures for “SGDWLRIIWDWVCSVVSDFKTWLSAKI [Peptide O6O]” were 0.334 µM, 0.273 µM, 0.068 µM and 0.412 µM.
For “SGSWLRDIWDWICEVLSDFKTWLKAKL [Peptide N1N]” the same measures were 3.23 µM, 1.1 µM, 0.217 µM and 0.402 µM.
As to “SGSWLRDIWDWICEVLSDFKTWLKAKL [Peptide N1O]”, the IC50 in data set [3] is 0.974 µM; in data set [4], 0.293 µM; in data set [5], 0.219 µM; in data set [6] it was 0.363 µM.
As to “SGSWLRDIWDWICEVLSDFKTWLKAKL [Peptide O1O]”, the IC50 in data set [3] worked out at 0.175 µM; in data set [4] it was 0.287 µM; in data set [5] it was 0.132 µM; in data set [6] it was 0.242 µM.
In the case of “SGSWLRDIWEWVCSILTDFKNWLSAKL [Peptide N4N]”, the IC50 is 3.88 µM in data set [3], 0.984 µM in data set [4], 0.281 µM in data set [5] and 1.35 µM in data set [6].
For “SGSWLRDIWEWVCSILTDFKNWLSAKL [Peptide N4O]” the same measures were 2.79 µM, 0.333 µM, 0.278 µM and 0.556 µM.
Consider “SGSWLRDIWEWVCSILTDFKNWLSAKL [Peptide O4O]”, for which the IC50 in data set [3] was 2.19 µM; in data set [4], 1.56 µM; in data set [5], 0.365 µM; in data set [6], 1.21 µM.
For “SGSWLRDVWDWICTVLTDFKTWLQSKL [Peptide N2N]”, the IC50 in data set [3] was 0.436 µM; in data set [4] it was 0.171 µM; in data set [5], 0.115 µM; in data set [6] it was 0.29 µM. The “Dependence of vesicle rupture on vesicle size (membrane-curvature sensing), single-vesicle analysis” value in data set [7] was “have membrane-curvature sensing mechanisms”.
Taken in the same sequence, the figures for “SGSWLRDVWDWICTVLTDFKTWLQSKL [Peptide N2O]” were 0.662 µM, 0.266 µM, 0.146 µM, 0.384 µM and “ruptured vesicles independently of vesicle size”.
With “SGSWLRDVWDWVCTILTDFKNWLTSKL [Peptide N3N]”, the IC50 was 0.936 µM in data set [3], 0.139 µM in data set [4], 0.121 µM in data set [5] and 0.389 µM in data set [6].
For “SGSWLRDVWDWVCTILTDFKNWLTSKL [Peptide N3O]” the same measures were 1.02 µM, 0.288 µM, 0.182 µM and 0.308 µM.
For “SGSWLRDVWDWVCTILTDFKNWLTSKL [Peptide O3O]” the same measures were 0.237 µM, 0.267 µM, 0.148 µM and 0.292 µM.
